Source: patent US20110009374A1, “METHOD OF WOUND HEALING AND SCAR MODULATION” (priority 2009, published 2011)
Where “and” joins values, the source holds several entries; their conditions need not be identical. Equal values may be shown once.

Experiments:
Type in all cases: in vivo
[1] = system: linear subcutaneous-deep wounds in hairless mice (Skh:HR-1); test: Example 1 wound healing in hairless mice: healing evaluation by wound width; settings: for Scar Width at widest margin: individual subject, 1% formulation topically twice daily; for Scar Width at widest margin / Scar Width at widest margin, Mean: L wound; for Scar Width at widest margin, Mean: mean of 12 subjects, 1% formulation twice daily
Description: (§1) Twelve hairless mice (Skh:HR-1) with an average weight of […] were treated topically with a local anesthetic (LMX-4, Ferndale Laboratories, Inc.) for dermal anesthesia for 30 minutes prior to wounding. Antiseptics were not used because of the possibility of their local effect on the wound healing process.
(§2) Two linear subcutaneous-deep wounds were made bilaterally with a 0.3 mm blade surgical knife on the dorsal side of each subject approximately 10 mm on each side of the spinal column. Because of the loose nature of the hairless mouse epidermis the wounds spread to as wide as 3 mm. Each mouse was housed separately.
(§3) The test formulation comprised the following ingredients (by weight percent): water (79%), ethanol (18%), prednisolone acetate (1%), and ammonium acryloyldimethyltaurate/VP copolymer (2%).
(§4) In each test subject, the right wound was assigned to a control (i.e., no treatment) and the left would was treated with a the 1% prednisolone acetate test formulation, applied twice daily (8 hours apart) beginning 1 h after the incision on day 1 and continuing through day 21. The wounds were about 20 mm apart to prevent the treatment gel from migrating from the treatment wound to the control wound.
Healing evaluation was made by measuring wound closure, which was assessed by the width of the wound. Evaluation was made on days 1, 3, 5, 10, and 14. The width of each scar was measured with digital calipers at the widest point while subject was lying motionless on its ventral side. Digital photographs were taken to record healing process.

[2] = system: linear subcutaneous-deep incision wounds in hairless mice (Skh:HR-1); test: Example 2 wound healing in hairless mice: healing evaluation by wound width
Description: (§5) Twelve hairless mice (Skh:HR-1) with an average weight of […] were treated topically with a local anesthetic (LMX-4, Ferndale Laboratories, Inc.) for 30 minutes prior to wounding for dermal anesthesia. Antiseptics were not used because of the possibility of their local effect on the wound healing process.
(§6) The mice were subdivided into two groups, A and B. Each mouse received three linear, 10 mm long, subcutaneous-deep incision wounds parallel to the spinal column. The first incision was near the spinal column on the left side (C), one at a position 10 mm away from the first on the same side (L), and one on the right side about 10 mm from the center line or spinal column (R). All incision wounds were made with a 0.3 mm blade surgical blade. Because of the loose nature of the hairless mouse epidermis the wounds spread to as wide as 3 mm. Each mouse was housed separately.
(§7) 1) 0.25% Formulations: water (79.75%), ethanol (18%), methylprednisolone acetate or prednisolone acetate (0.25%), and ammonium acryloyldimethyltaurate/VP copolymer (2%).
(§8) 2) 1% Formulations: water (79%), ethanol (18%), methylpredinisolone acetate or prednisolone acetate (1%), and ammonium acryloyldimethyltaurate/VP copolymer (2%).
(§9) In Group A, wounds C and L were treated with the 0.25% and 1% methylprednisolone acetate formulations, respectively, and wound R was the control or untreated wound. In Group B, wounds C and L were treated with the 0.25% and 1% prednisolone acetate formulations, respectively and wound R was the control. The study drug (methylprednisolone or prednisolone) was applied to the treatment wounds twice daily (8 hours apart) beginning 1 h after the incision on day 1 and continuing through day 21. The wounds were far enough apart to avoid the spread of the treatment gel from the treated wound to the control wound. No additional physical barrier, such as a gauze bandage, was used.
Healing evaluation was made by measuring wound closure, which was assessed by the width of the wound. The width of each scar was measured with digital calipers at the widest point while subject was lying motionless, on its ventral side. Digital photographs were taken to record the healing process. The mean width of wound was recorded on days 1, 3, 5, 7, 9, 11, 13, 15, 17, 19 and 21.

[3] = system: linear subcutaneous-deep wounds in hairless mice (Skh:HR-1); test: Example 1 scar evaluation by Vancouver Scale at day 21; settings: 1% formulation
Description: as §1, §2, §3, §4
Each mouse was kept in its cage during days 14-21. On day 21, each scar was assessed according to the Vancouver Scale (18 points) under magnification by two observers independently and the scores were averaged and recorded. Progressive re-epithelialization of the wound surface from the wound edges continued until the wound surface was completely closed at a time between days 14 and 21.

[4] = system: linear subcutaneous-deep incision wounds in hairless mice (Skh:HR-1); test: Example 2 scar evaluation by Vancouver Scale at day 21 and gross evaluation; design: key: Vancouver Scale subscores (18-point total), mean of two observers
Description: as §5, §6, §7, §8, §9
Each mouse was kept in its cage during days 14-21. On day 21, each scar was assessed according to the Vancouver Scale (18 points) under magnification by two observers independently and the scores were averaged and recorded. Progressive re-epithelializaton of the wound surface from the wound edges continued until the wound surface was completely closed at a time between days 14 and 21.

[5] = Day 21, individual subject, L wound
[6] = Day 21, mean of 12 subjects, L wound

CC(=O)OCC(=O)[C@@]1(O)CC[C@H]2[C@@H]3CCC4=CC(=O)C=C[C@]4(C)[C@H]3[C@@H](O)C[C@@]21C [prednisolone acetate]
redness and marginal line of treated wounds vs control ([1]; 1% formulation): less redness and a finer marginal line | scars healed with some degree of contracture ([1]; 1% formulation, number of scars out of 12): 8 out of the 12 | signs of infection ([1]; 1% formulation, treated and control wounds): Neither the control nor the treated wounds showed signs of infection | Scar Width at widest margin ([1]; Day 1): 3.0 mm (2×) and 2.6 mm and 2.9 mm (4×) and 2.7 mm (3×) and 2.8 mm (2×) | Scar Width at widest margin, Mean ([1]; Day 1): 2.8 mm | Scar Width at widest margin ([1]; Day 3): 1.9 mm (3×) and 1.8 mm (4×) and 1.4 mm and 1.5 mm and 1.7 mm (3×) | Scar Width at widest margin, Mean ([1]; Day 3): 1.8 mm | Scar Width at widest margin ([1]; Day 5): 1.7 mm (3×) and 1.6 mm (3×) and 1.1 mm and 1.3 mm and 1.4 mm (3×) and 1.5 mm | Scar Width at widest margin, Mean ([1]; Day 5): 1.5 mm | Scar Width at widest margin ([1]; Day 10): 0.6 mm (4×) and 0.2 mm and 0.4 mm (2×) and 0.5 mm (3×) and 0.3 mm and 0.7 mm | Scar Width at widest margin, Mean ([1]; Day 10): 0.5 mm | Scar Width at widest margin ([1]; Day 14): 0.2 mm (2×) and 0.0 mm (10×) | Scar Width at widest margin, Mean ([1]; Day 14): 0 mm and 0.0 mm | mean difference in wound width, treated vs control ([1]; day 3, 1% formulation): 0.4 mm | mean difference in wound width, treated vs control ([1]; day 5, 1% formulation): 0.4 mm | mean difference in wound width, treated vs control ([1]; day 7, 1% formulation): 0.5 mm | mean difference in wound width, treated vs control ([1]; day 10, 1% formulation): 0.5 mm | mean difference in wound width, treated vs control ([1]; day 14, 1% formulation): 0.7 mm | retarding of healing phases ([1]; evaluation and healing period, 1% formulation): No apparent retarding of any phase of healing | contracture of healed epidermal layer vs control ([1]; evident by day 5, 1% formulation): less contracture | gross appearance of treated wounds (crusting, infiltrates, exudates) ([1]; first 14 days, 1% formulation): clear of crusting, infiltrates, and exudates | healing vs control group by wound width ([1]; over a 14-day period, 1% formulation): faster than the control group | Mean Wound Width at Widest Margin ([2]; Day 1, wound C, 0.25% formulation twice daily): 3.1 ± 0.3 mm | Mean Wound Width at Widest Margin ([2]; Day 1, wound L, 1% formulation twice daily): 3.0 ± 0.2 mm | Mean Wound Width at Widest Margin ([2]; Day 3, wound C, 0.25% formulation twice daily): 2.5 ± 0.2 mm | Mean Wound Width at Widest Margin ([2]; Day 3, wound L, 1% formulation twice daily): 2.4 ± 0.3 mm | Mean Wound Width at Widest Margin ([2]; Day 5, wound C, 0.25% formulation twice daily): 1.7 ± 0.2 mm | Mean Wound Width at Widest Margin ([2]; Day 5, wound L, 1% formulation twice daily): 1.8 ± 0.4 mm | Mean Wound Width at Widest Margin ([2]; Day 7, wound C, 0.25% formulation twice daily): 1.4 ± 0.2 mm | Mean Wound Width at Widest Margin ([2]; Day 7, wound L, 1% formulation twice daily): 1.5 ± 0.2 mm | Mean Wound Width at Widest Margin ([2]; Day 9, wound C, 0.25% formulation twice daily): 1.1 ± 0.2 mm | Mean Wound Width at Widest Margin ([2]; Day 9, wound L, 1% formulation twice daily): 1.0 ± 0.2 mm | Mean Wound Width at Widest Margin ([2]; Day 11, wound C, 0.25% formulation twice daily): 0.6 ± 0.2 mm | Mean Wound Width at Widest Margin ([2]; Day 11, wound L, 1% formulation twice daily): 0.6 ± 0.2 mm | Mean Wound Width at Widest Margin ([2]; Day 13, wound C, 0.25% formulation twice daily): 0.1 ± 0.2 mm | Mean Wound Width at Widest Margin ([2]; Day 13, wound L, 1% formulation twice daily): 0.2 ± 0.3 mm | Mean Wound Width at Widest Margin ([2]; Day 15, wound C, 0.25% formulation twice daily): 0 mm | Mean Wound Width at Widest Margin ([2]; Day 15, wound L, 1% formulation twice daily): 0 mm | Mean Wound Width at Widest Margin ([2]; Day 17, wound C, 0.25% formulation twice daily): 0 mm | Mean Wound Width at Widest Margin ([2]; Day 17, wound L, 1% formulation twice daily): 0 mm | Mean Wound Width at Widest Margin ([2]; Day 19, wound C, 0.25% formulation twice daily): 0 mm | Mean Wound Width at Widest Margin ([2]; Day 19, wound L, 1% formulation twice daily): 0 mm | Mean Wound Width at Widest Margin ([2]; Day 21, wound C, 0.25% formulation twice daily): 0 mm | Mean Wound Width at Widest Margin ([2]; Day 21, wound L, 1% formulation twice daily): 0 mm | Averaged Vancouver Scale Scar Scoring, Height [3, 5]: 0 | Averaged Vancouver Scale Scar Scoring, Pigmentation [3, 5]: 1.5 and 1 (11×) | Averaged Vancouver Scale Scar Scoring, Pliability [3, 5]: 1 (10×) and 1.5 (2×) | Averaged Vancouver Scale Scar Scoring, Vascularity [3, 5]: 1 (2×) and 0 (10×) | Averaged Vancouver Scale Scar Scoring, Height, Mean [3, 6]: 0 | Averaged Vancouver Scale Scar Scoring, Pigmentation, Mean [3, 6]: 1.1 | Averaged Vancouver Scale Scar Scoring, Pliability, Mean [3, 6]: 1.1 | Averaged Vancouver Scale Scar Scoring, Vascularity, Mean [3, 6]: 0.16 | global assessment of scars by Vancouver Scale, treated vs control ([3]; day 21): significant difference in pliability, pigmentation and vascularity | pigmentation vs control ([3]; day 21): marginally better | vascularity in treated areas ([3]; day 21): returned to virtually normal | Mean Vancouver Scale Scar Scoring, Height ([4]; wound C, 0.25% formulation): 0 | Mean Vancouver Scale Scar Scoring, Pigmentation ([4]; wound C, 0.25% formulation): 1 | Mean Vancouver Scale Scar Scoring, Pliability ([4]; wound C, 0.25% formulation): 2.5 | Mean Vancouver Scale Scar Scoring, Vascularity ([4]; wound C, 0.25% formulation): 0 | Mean Vancouver Scale Scar Scoring, Height ([4]; wound L, 1% formulation): 0 | Mean Vancouver Scale Scar Scoring, Pigmentation ([4]; wound L, 1% formulation): 1 | Mean Vancouver Scale Scar Scoring, Pliability ([4]; wound L, 1% formulation): 1.0 | Mean Vancouver Scale Scar Scoring, Vascularity ([4]; wound L, 1% formulation): 0
